Biological target: KRAS G12C (Homo sapiens (Human), UniProt P01116, C118A/G12C)
Assay: 2 h coupled exchange assay
Assay type: biochemical
Details: Avg 2 h Coupled exchange IC50, 2 h compound pre-incubation
Method: The term “2 h coupled exchange assay” or “20 h coupled exchange assay” as used herein refers to the assay described in the Section entitled “BIOLOGICAL EVALUATION.”

Molecule	IC50 [nM]
C=CC(=O)N1CC2(CCN(c3nc4c(c(-c5cc(O)ccc5C)c3C)COC(C)(C)C4)C2)C1 (single isomer, unassigned) [Example 14-32, (P)-1-(6-(4-(5-hydroxy-2-methylphenyl)-3,7,7-trimethyl-7,8-dihydro-5H-pyrano[4,3-b]pyridin-2-yl)-2,6-diazaspiro[3.4]octan-2-yl)-2-propen-1-one]	3040
Cc1ccc2[nH]ncc2c1-c1c(C#N)c(N2CCC3(CN(C(=O)/C=C/COC(F)F)C3)C2)nc2c1CCC(C)(C)C2 [Example 30-1, 2-(2-((2E)-4-(difluoromethoxy)-2-butenoyl)-2,6-diazaspiro[3.4]octan-6-yl)-7,7-dimethyl-4-(5-methyl-1H-indazol-4-yl)-5,6,7,8-tetrahydro-3-quinolinecarbonitrile]	487
C=CC(=O)N1CC2(CCN(c3nc4c(c(-c5cccc6cc(O)ccc56)c3F)COC(C)(C)C4)C2)C1 (single isomer, unassigned) [Example 14-66, (P)-1-(6-(3-fluoro-4-(6-hydroxy-1-naphthalenyl)-7,7-dimethyl-7,8-dihydro-5H-pyrano[4,3-b]pyridin-2-yl)-2,6-diazaspiro[3.4]octan-2-yl)-2-propen-1-one]	33500
C=CC(=O)N1CC2(CCN(c3nc4c(c(-c5cccc6cc(O)ccc56)c3F)COC(C)(C)C4)C2)C1 [Example 14-65, 1-(6-(3-fluoro-4-(6-hydroxy-1-naphthalenyl)-7,7-dimethyl-7,8-dihydro-5H-pyrano[4,3-b]pyridin-2-yl)-2,6-diazaspiro[3.4]octan-2-yl)-2-propen-1-one]	367
C=CC(=O)N1CC2(CCN(c3nc4c(c(-c5[nH]c(=O)cc6ccccc56)c3C#N)CCC(C)(C)C4)C2)C1 [Example 33-2, 7,7-dimethyl-4-(3-oxo-2,3-dihydro-1-isoquinolinyl)-2-(2-(2-propenoyl)-2,6-diazaspiro[3.4]octan-6-yl)-5,6,7,8-tetrahydro-3-quinolinecarbonitrile]	659
[2H]C([2H])([2H])n1ncc2ccc(C)c(-c3c(C)c(N4CCC5(CN(C(=O)C=C)C5)C4)nc4c3COC(C)(C)C4)c21 [Example 14-36, 1-(6-(3,7,7-trimethyl-4-(6-methyl-1-(^2H3)methyl-1H-indazol-7-yl)-7,8-dihydro-5H-pyrano[4,3-b]pyridin-2-yl)-2,6-diazaspiro[3.4]octan-2-yl)-2-propen-1-one]	226
C=CC(=O)N1CC2(CCN(c3nc4c(c(-c5c(C)c(Cl)cc6cnn(C)c56)c3F)COC(C)(C)C4)C2)C1 (single isomer, unassigned) [Example 14-79, (P)-1-(6-(4-(5-chloro-1,6-dimethyl-1H-indazol-7-yl)-3-fluoro-7,7-dimethyl-7,8-dihydro-5H-pyrano[4,3-b]pyridin-2-yl)-2,6-diazaspiro[3.4]octan-2-yl)-2-propen-1-one]	9600
C=CC(=O)N1CC2(CCN(c3nc4c(c(-c5cccc6cc[nH]c56)c3C#N)C[C@H]3C[C@@H]4C3(C)C)C2)C1 [Example 14-22, (1R,9R)-6-(1H-indol-7-yl)-10,10-dimethyl-4-(2-(2-propenoyl)-2,6-diazaspiro[3.4]octan-6-yl)-3-azatricyclo[7.1.1.0^2,7]undeca-2,4,6-triene-5-carbonitrile]	606
C=CC(=O)N1CC2(CCN(c3nc4c(c(-c5cccc6cn[nH]c56)c3C#N)C[C@H]3C[C@@H]4C3(C)C)C2)C1 (single isomer, unassigned) [Example 14-28]	886
C=CC(=O)N1CC2(CCN(c3nc4c(c(-c5c(C)ccc6cnn(C)c56)c3F)COC(C)(C)C4)C2)C1 (single isomer, unassigned) [Example 14-102, (P)-1-(6-(4-(1,6-dimethyl-1H-indazol-7-yl)-3-fluoro-7,7-dimethyl-7,8-dihydro-5H-pyrano[4,3-b]pyridin-2-yl)-2,6-diazaspiro[3.4]octan-2-yl)-2-propen-1-one]	55600

Same assay, conditions: Avg 2 h Coupled exchange IC50, 2 h compound pre-incubation, SOS-mediated nucleotide exchange

Molecule	IC50 [nM]
C=CC(=O)N1CC2(CCN(c3nc4c(c(-c5c(C)ccc6cnn(C)c56)c3C#N)C[C@H]3C[C@@H]4C3(C)C)[C@@H]2CO)C1 [Example 13-61, (1R,9R)-6-(1,6-dimethyl-1H-indazol-7-yl)-4-((5S)-5-(hydroxymethyl)-2-(2-propenoyl)-2,6-diazaspiro[3.4]octan-6-yl)-10,10-dimethyl-3-azatricyclo[7.1.1.0^2,7]undeca-2,4,6-triene-5-carbonitrile]	332
C=CC(=O)N1CC2(CCN(c3nc4c(c(-c5cnccc5C)c3C#N)C[C@H]3C[C@@H]4C3(C)C)C2)C1 [Example 13-109, (1R,9R)-10,10-dimethyl-6-(4-methyl-3-pyridinyl)-4-(2-(2-propenoyl)-2,6-diazaspiro[3.4]octan-6-yl)-3-azatricyclo[7.1.1.0^2,7]undeca-2,4,6-triene-5-carbonitrile]	1110
C=CC(=O)N1CC2(CCN(c3nc4c(c(-c5cc(O)c(F)c6ccccc56)c3C#N)COC(C)(C)C4)C2)C1 (single isomer, unassigned) [Example 13-77, (M)-4-(4-fluoro-3-hydroxy-1-naphthalenyl)-7,7-dimethyl-2-(2-(2-propenoyl)-2,6-diazaspiro[3.4]octan-6-yl)-7,8-dihydro-5H-pyrano[4,3-b]pyridine-3-carbonitrile]	35600
C=CC(=O)N1CC2(CCN(c3nc4c(c(-c5c(O)cccc5Cl)c3C#N)C[C@H]3C[C@@H]4C3)C2)C1 [Example 13-64, (1S,9S)-6-(2-chloro-6-hydroxyphenyl)-4-(2-(2-propenoyl)-2,6-diazaspiro[3.4]octan-6-yl)-3-azatricyclo[7.1.1.0^2,7]undeca-2,4,6-triene-5-carbonitrile]	1080
C=CC(=O)N1CC2(CCN(c3nc4ccccc4c(-c4c(C)ccc5[nH]ncc45)c3C3CC3)C2)C1 [Example 6, 1-(6-(3-cyclopropyl-4-(5-methyl-1H-indazol-4-yl)quinolin-2-yl)-2,6-diazaspiro[3.4]octan-2-yl)prop-2-en-1-one]	3500
C=CC(=O)N1CC2(CCN(c3nc4c(c(-c5cccc6cc(N)ncc56)c3C#N)COC(C)(C)C4)C2)C1 [Example 12-17, 4-(3-amino-8-isoquinolinyl)-7,7-dimethyl-2-(2-(2-propenoyl)-2,6-diazaspiro[3.4]octan-6-yl)-7,8-dihydro-5H-pyrano[4,3-b]pyridine-3-carbonitrile]	132
C=CC(=O)N1CC2(CCN(c3nc4c(c(-c5c(C)cccc5O)c3C#N)C[C@H]3C[C@@H]4C3)C2)C1 (single isomer, unassigned) [Example 13-39]	639
C=CC(=O)N1CC2(CCN(c3nc4c(c(-c5c(O)ccc6ccccc56)c3C#N)COC(C)(C)C4)C2)C1 [Example 13-34, 4-(2-hydroxy-1-naphthalenyl)-7,7-dimethyl-2-(2-(2-propenoyl)-2,6-diazaspiro[3.4]octan-6-yl)-7,8-dihydro-5H-pyrano[4,3-b]pyridine-3-carbonitrile]	946
C=CC(=O)N1CC2(CCN(c3nc4c(c(-c5c(C)ccc6[nH]ncc56)c3COC)CCC(C)(C)C4)C2)C1 [Example 13-46, 1-(6-(3-(methoxymethyl)-7,7-dimethyl-4-(5-methyl-1H-indazol-4-yl)-5,6,7,8-tetrahydro-2-quinolinyl)-2,6-diazaspiro[3.4]octan-2-yl)-2-propen-1-one]	685
C=CC(=O)N1CC2(CCN(c3nc4c(c(-c5cc(F)c(O)c6ccccc56)c3C#N)COC(C)(C)C4)C2)C1 [Example 12-28, 4-(3-fluoro-4-hydroxy-1-naphthalenyl)-7,7-dimethyl-2-(2-(2-propenoyl)-2,6-diazaspiro[3.4]octan-6-yl)-7,8-dihydro-5H-pyrano[4,3-b]pyridine-3-carbonitrile]	263
C=CC(=O)N1CC2(CCN(c3nc4c(c(-c5c(C)ccc6cnn(C)c56)c3C#N)C[C@H]3C[C@@H]4C3)[C@H]2C)C1 (single isomer, unassigned) [Example 13-32]	64900
C=CC(=O)N1CC2(CCN(c3nc4c(c(-c5cc(O)ccc5C)c3C#N)[C@@H]3CC[C@H]4C3)C2)C1 (single isomer, unassigned) [Example 14-10]	1140
C=CC(=O)N1CC2(CCN(c3nc4c(c(-c5cccc6c(O)cccc56)c3C)COC(C)(C)C4)C2)C1 [Example 2-82, 1-(6-(4-(5-hydroxy-1-naphthalenyl)-3,7,7-trimethyl-7,8-dihydro-5H-pyrano[4,3-b]pyridin-2-yl)-2,6-diazaspiro[3,4]octan-2-yl)-2-propen-1-one]	641
C=CC(=O)N1CC2(CCN(c3nc4c(c(-c5cccc6cc(C(F)(F)F)[nH]c56)c3C#N)C[C@H]3C[C@@H]4C3(C)C)C2)C1 [Example 12-27, (1R,9R)-10,10-dimethyl-4-(2-(2-propenoyl)-2,6-diazaspiro[3.4]octan-6-yl)-6-(2-(trifluoromethyl)-1H-indol-7-yl)-3-azatricyclo[7.1.1.0^2,7] undeca-2,4,6-triene-5-carbonitrile]	476
C=CC(=O)N1CC2(CCN(c3nc4c(c(-c5cc(Cl)cc6cnn(C)c56)c3C)COC(C)(C)C4)C2)C1 [Example 2-32, 1-(6-(4-(5-chloro-1-methyl-1H-indazol-7-yl)-3,7,7-trimethyl-7,8-dihydro-5H-pyrano[4,3-b]pyridin-2-yl)-2,6-diazaspiro[3.4]octan-2-yl)-2-propen-1-one]	808
C=CC(=O)N1CC2(CCN(c3nc4c(c(-c5c(C)ccc6cnn(C)c56)c3C#N)CO[C@H](C3CC3)C4)C2)C1 (single isomer, unassigned) [Example 13-121]	849

Same assay, conditions: read-out: Avg 2 h Coupled exchange IC50, 2 h compound pre-incubation, SOS-mediated nucleotide exchange

Molecule	IC50 [nM]
(P)-1-(6-(4-(5-chloro-1-methyl-1H-indazol-7-yl)-3,7,7-trimethyl-7,8-dihydro-5H-pyrano[4,3-b]pyridin-2-yl)-2,6-diazaspiro[3.4]octan-2-yl)-2-propen-1-one [Example 2-34]	427

Reference: US20240059703A1 (AMGEN INC., priority 2021, published 2024)
